Assay results as given in paper PMC5458211, “Mitochondrial VDAC1-based peptides: Attacking oncogenic properties in glioblastoma” (Oncotarget, 2017).
Non-standard residues stand in square brackets, D forms with d. Residues, ends and D or L forms follow the SMILES beside them.

Legend:
Format in all cases: cell-based, human
U-87MG cells [1] = assay: Cell death by propidium iodide (PI) staining and flow cytometry, U-87MG; settings: 6 h at 37°C, serum-free medium, means ± SD (n=3), Fig 1H, read-out: IC50 for inducing cell death
Text: Figure 1 VDAC1-based peptides induce dramatic cell death of several brain tumor-derived cell lines but to lesser extent in primary brain cells A. IHC staining of VDAC1 of human normal brain (n=13) or glioblastoma (n=41) in tissue array slides (Biomax), as described in Materials and methods available online in Supplemental information. Percentages of sections stained at the intensity indicated are shown. […] The VDAC1-derived sequences Δ(1-14)N-terminus and LP4 are in green and pink, respectively. The cell-penetrating peptides Antp and Tf are in orange and blue, respectively. The loop shape of LP4 stabilized by a tryptophan zipper is in purple. The amino acids of Δ(1-14)N-terminus, LP4 and Antp are in the D configuration. […] Cells were harvested, washed twice with PBS and cell death was analyzed by propidium iodide (PI) staining and flow cytometry. […] Cells were harvested, washed twice with PBS and cell death was analyzed by PI staining and flow cytometry. […]
Sections were also hematoxylin-stained and visualized by microscopy. […] Quantitative analysis of immunoblots is shown (n=2-4). […] E. Quantitative analysis of immunoblots. […]
[…] The cells were then trypsinized, centrifuged (1500xg, 5 min), washed with PBS and analyzed for cell death using propidium iodide (PI) staining and flow cytometer (Beckton-Dickinson, San Jose, CA) and BD CellQuest Pro software. […]

U-87MG cells [2] = assay: Morphological analysis of apoptosis by electron microscopy; settings: 6 h, serum-free medium, Suppl Fig 2C
Procedure: Supplementary Figure 2: Mode of action of VDAC1-based peptides. […]
detachment. SH-SY5Y cells (4×10^4/ml) were grown on cover slips, transfected with plasmid pEGFP-HK-I and after 24 h, were incubated […]
The final DMSO concentration in control and peptide-treated cells was 0.07%. Fixed cells were stained with DAPI and visualized by confocal microscopy (Olympus 1X81). Arrows indicate cells […]
showing diffusion of HK-I-GFP. B-C. […] B. SH-SY5Y cells were treated with the indicated […]
Arrows and arrowheads indicate cells with membrane blebbing (early apoptotic state) and late apoptotic states, respectively. C. Morphological analysis of apoptosis by electron microscopy (EM). For transmission EM, U-87MG cells (1.6 x10^6 /ml) were incubated with the indicated concentrations of D-ΔN-Ter-Antp peptide or DMSO (0.3% final concentration) for 6 h in serum-free medium. Cells were pelleted and fixed in Karnovsky’s fixative (2% paraformaldehyde, 2.5% glutaraldehyde in 0.1 M cacodylate buffer, pH 7.4) for 10 minutes at room temperature and then in fresh fixative for 3.5 days in the cold. Following buffer rinses, the cells were incubated with 1% osmium tetroxide in 0.1 M cacodylate buffer, dehydrated in an ethanol series, incubated with epoxy propane and embedded in Araldite resin. […]

U-87MG cells [3] = assay: Apoptosis by FITC-Annexin V/PI staining and flow cytometry, U-87MG; settings: 3 h at 37°C, Fig 6G-H
Procedure: Sections were also hematoxylin-stained and visualized by microscopy. B. Tissue lysates obtained from controls and several TF-D-LP4-TTs were immunoblotted for Nestin, Sox2, NGFR, CD133, and Klf4. C. Quantitative analysis of immunoblots is shown (n=2-4). D. Immunoblot analysis of, Klf4, Sox2, Nestin and Musashi expression in U-87MG and G7 cell lines, using specific antibodies. E. Quantitative analysis of immunoblots. […] G. G7 (·) and U-87MG cells (○) (2×10^5) were incubated for 3 h with the DMSO (0.15%) or with the indicated concentration of Retro-Tf-D-LP4 peptide in serum-free growth medium at 37°C and then subjected to FITC-Annexin V/PI staining and flow cytometry analysis. H. Representative FACS analysis of DMSO- (left) and 5 μM of Retro-Tf-D-LP4- (right) treated G7 or U-87MG cells.
Cells (6×10^5 /ml) were incubated in 500 μl serum-free medium with the peptide of interest for 6 h at 37°C in the presence of 5% CO2. The cells were then trypsinized, centrifuged (1500xg, 5 min), washed with PBS and analyzed for cell death using propidium iodide (PI) staining and flow cytometer (Beckton-Dickinson, San Jose, CA) and BD CellQuest Pro software. Apoptotic cell death was also analyzed by PI and annexin V-FITC staining, and by acridine orange and ethidium bromide staining and light microscopy (Olympus LX2-KSP).

Row | SMILES | IC50 (U-87MG cells [1]) | apoptotic morphological changes (electron microscopy) (U-87MG cells [2]) | apoptosis of U-87MG cells (U-87MG cells [3])
1 | CC[C@@H](C)[C@@H](NC(=O)[C@@H](CCCCN)NC(=O)[C@H](NC(=O)[C@@H](CCC(N)=O)NC(=O)[C@@H](CCCNC(=N)N)NC(=O)[C@@H](CC(C)C)NC(=O)CNC(=O)[C@@H](Cc1ccccc1)NC(=O)CNC(=O)[C@@H](Cc1ccc(O)cc1)NC(=O)CNC(=O)[C@@H](CCCCN)NC(=O)[C@H](NC(=O)[C@@H](Cc1ccccc1)NC(=O)[C@H](NC(=O)[C@@H](CC(=O)O)NC(=O)[C@H](N)CCCNC(=N)N)C(C)C)[C@H](C)O)[C@H](C)CC)C(=O)N[C@H](Cc1c[nH]c2ccccc12)C(=O)N[C@H](Cc1ccccc1)C(=O)N[C@H](CCC(N)=O)C(=O)N[C@H](CC(N)=O)C(=O)N[C@H](CCCNC(=N)N)C(=O)N[C@H](CCCNC(=N)N)C(=O)N[C@H](CCSC)C(=O)N[C@H](CCCCN)C(=O)N[C@H](Cc1c[nH]c2ccccc12)C(=O)N[C@H](CCCCN)C(=O)N[C@H](CCCCN)C(=O)O [D-ΔN-Ter-Antp] (H-[dR][dD][dV][dF][dT][dK]G[dY]G[dF]G[dL][dR][dQ][dI][dK][dI][dW][dF][dQ][dN][dR][dR][dM][dK][dW][dK][dK]-OH; N-terminus and C-terminus assumed) | 3.2 ± 0.6 µM | condensation of nuclei, DNA fragmentation, and possible apoptotic body formation | 
2 | CC[C@H](C)[C@H](NC(=O)[C@H](Cc1ccc(O)cc1)NC(=O)[C@@H]1CCCN1C(=O)[C@H](CCCNC(=N)N)NC(=O)[C@H](Cc1c[nH]cn1)NC(=O)[C@H](CO)NC(=O)[C@H](Cc1c[nH]c2ccccc12)NC(=O)[C@@H](NC(=O)[C@H](Cc1c[nH]c2ccccc12)NC(=O)[C@H](CCC(=O)O)NC(=O)[C@@H](CCCCN)NC(=O)[C@@H](CCCCN)NC(=O)[C@@H](CC(C)C)NC(=O)[C@@H](CCC(=O)O)NC(=O)[C@H](NC(=O)[C@@H](C)NC(=O)[C@H](NC(=O)[C@@H](CC(N)=O)NC(=O)[C@@H](CC(C)C)NC(=O)[C@@H](C)NC(=O)[C@@H](Cc1c[nH]c2ccccc12)NC(=O)[C@H](NC(=O)[C@@H](C)NC(=O)CNC(=O)[C@@H](CC(N)=O)NC(=O)[C@@H](CO)NC(=O)[C@@H](CC(N)=O)NC(=O)[C@H](CCCCN)NC(=O)[C@H](Cc1c[nH]c2ccccc12)NC(=O)[C@@H](NC(=O)[C@H](Cc1c[nH]c2ccccc12)NC(=O)[C@@H](N)CCCCN)[C@@H](C)O)[C@H](C)O)C(C)C)[C@H](C)O)[C@@H](C)O)C(=O)N[C@@H](C)C(=O)N[C@@H](Cc1c[nH]cn1)C(=O)O [Retro-Tf-D-LP4] |  |  | induces apoptosis
